Test results from US20240317712A1, “[…] DERIVATIVES AS INHIBITORS OF […]-PEPTIDE CYCLOTRANSFERASE AND […]-PEPTIDE CYCLOTRANSFERASE LIKE PROTEIN” (Boehringer Ingelheim International GmbH, priority 2023, published 2024).

Tests used:
QPCTL = biological target: T1, QPCTL (Homo sapiens, UniProt Q9NXS2); test: Assay A: biochemical QPCTL activity assay (MALDI-TOF MS, CD47 peptide substrate); conditions: 0.5 nM enzyme, 10 μM CD47 peptide substrate; read-out: Inhibition of QPCTL: IC50
T1 construct: made in house
T1 sequence (Q9NXS2 whole entry): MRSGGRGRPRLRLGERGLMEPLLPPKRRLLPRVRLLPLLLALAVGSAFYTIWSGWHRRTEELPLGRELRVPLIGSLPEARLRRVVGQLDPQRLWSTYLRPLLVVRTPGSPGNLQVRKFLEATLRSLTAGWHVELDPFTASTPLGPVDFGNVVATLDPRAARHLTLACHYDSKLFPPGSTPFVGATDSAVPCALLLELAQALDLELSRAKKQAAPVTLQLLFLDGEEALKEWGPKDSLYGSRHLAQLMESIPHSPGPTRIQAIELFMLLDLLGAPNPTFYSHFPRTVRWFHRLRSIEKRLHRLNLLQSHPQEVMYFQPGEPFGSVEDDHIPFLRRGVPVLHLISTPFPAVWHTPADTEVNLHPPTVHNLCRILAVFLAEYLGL
Description: (§1) QPCT or QPCTL dependent conversion of N-terminal glutamine to pyroglutamate of CD47 was monitored via MALDI-TOF MS. Test compounds were dissolved in 100% DMSO and serially diluted into clear 1,536-well microtiter plates. Enzymatic reactions were set up in assay buffer containing 20 mM Tris pH 7.5, 0.1 mM TCEP, 0.01% BSA, and 0.001% Tween20. […] The plates were incubated for 10 min in a humidified incubator at 24° C. Subsequently, 2.5 µL of CD47 peptide substrate surrogate (^19[…]^33) was added to each well (final concentration: 10 μM for QPCTL/20 μM for QPCT). The plates were mixed for 30 sec at 1,000 rpm and subsequently incubated for 40 min in a humidified incubator at 24° C. […] The plates were sealed with an adhesive foil, mixed for 30 s at 1,000 rpm and stored at room temperature until preparation of the MALDI target plates. MALDI target plates were prepared as described previously. […] QPCT or QPCTL activity was monitored by calculating the ratio between product and internal standard signals followed by normalization to high (100% activity) and low (0% activity) controls. Determination of compound potencies was obtained by fitting the dose-response data to a four-parameter logistical equation.

QPCT = biological target: T2, QPCT (Homo sapiens, UniProt Q16769); test: Assay A: biochemical QPCT activity assay (MALDI-TOF MS, CD47 peptide substrate); conditions: 0.5 nM enzyme, 20 μM CD47 peptide substrate; read-out: Inhibition of QPCT: IC50
T2 construct: purchased Origine (so in the source)
T2 sequence (Q16769 29-361): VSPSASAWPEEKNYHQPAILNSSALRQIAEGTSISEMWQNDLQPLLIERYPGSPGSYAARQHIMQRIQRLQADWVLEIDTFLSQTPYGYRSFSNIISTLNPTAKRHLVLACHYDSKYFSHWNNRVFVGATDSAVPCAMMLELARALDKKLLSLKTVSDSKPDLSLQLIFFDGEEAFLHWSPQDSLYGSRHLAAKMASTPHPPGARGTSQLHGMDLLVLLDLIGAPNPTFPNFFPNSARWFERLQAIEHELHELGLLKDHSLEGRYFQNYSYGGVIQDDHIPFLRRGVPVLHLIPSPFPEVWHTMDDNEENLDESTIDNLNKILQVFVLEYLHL
Description: as §1

[1] = tested on: SIRPα signalling induced by Raji cells; test: Assay B: SIRPα signalling assay using Raji cells; format: cell-based; conditions: Homo sapiens, 48 h compound incubation, Jurkat PathHunter SIRPaV1 reporter cells, read-out: Inhibition of SIRPα signalling induced by Raji cells: IC50
Description: (§2) Two cell types are independently used: the Raji cell line (lymphoblast-like human cell line derived from B lymphocytes from a Burkitt's lymphoma patient in 1963) and A549 cells (adenocarcinoma human alveolar basal epithelial cells).
(§3) Test compounds were dissolved in 100% DMSO and serially diluted into a white 384-well microtiter cell culture plate (PerkinElmer #60076780 in case of Raji assay; PDL-coated plates Greiner #781945 in case of A549 assay), 5000 Raji cells (ATCC #CC86) or 5000 A549 cells (ATCC #CCL-185) in Assay Complete Cell Plating reagent 30 (DiscoverX 93-0563R30B) were added per well. The assay plate was incubated for 48 h at 37° C., 95% humidity and 5% CO2. 15000 reporter cells (Jurkat PathHunter SIRPaV1, DiscoverX #93-1135C19) were added to each well, and the plate was incubated for 5 h at 37° C., 95% humidity and 5% CO2. Bioassay reagent 1 of the PathHunter Bioassay detection kit (DiscoverX 93-0001) was added to each well of the plate using a multichannel pipette followed by a 15 min incubation at room temperature. Afterwards bioassay reagent 2 was added followed by 60 min incubation at room temperature (incubation in the dark). The analysis of the data was performed using the luminescence signal generated by beta-galactosidase in the PathHunter reporter cell line. The luminescence measurement was done using a Pherastar Multi-Mode Reader. Dose-response curves & IC50 data were calculated with 4-parameter sigmoidal dose response formula.

[2] = tested on: SIRPα signalling induced by A549 cells; test: Assay B: SIRPα signalling assay using A549 cells; format: cell-based; conditions: Homo sapiens, 48 h compound incubation, Jurkat PathHunter SIRPaV1 reporter cells, read-out: Inhibition of SIRPα signalling induced by A549 cells: IC50
Description: as §2, §3

[3] = Assay C: Permeability in CACO-2 cells; format: in vitro ADME; conditions: human, pH 7.2; for efflux ratio: Caco-2, permeability B−A/permeability A−B; for Papp A→B: Caco-2, apical to basolateral
Description: Caco-2 cells (1-2×10^5 cells/1 cm^2 area) are seeded on filter inserts (Costar transwell polycarbonate or PET filters, 0.4 μm pore size) and cultured (DMEM) for 10 to 25 days. Compounds are dissolved in appropriate solvent (like DMSO, 1-20 mM stock solutions). […] The transport solution (TL) is applied to the apical or basolateral donor side for measuring A-B or B-A permeability (3 filter replicates), respectively. Samples are collected at the start and end of experiment from the donor and at various time intervals for up to 2 hours also from the receiver side for concentration measurement by HPLC-MS/MS or scintillation counting. Sampled receiver volumes are replaced with fresh receiver solution.
Efflux ratio (ER)=permeability B−A/permeability A−B

IC50 (QPCTL) | IC50 (QPCT) | IC50 [1] | IC50 [2] | efflux ratio [3] | Papp A→B [3] | Structure (SMILES)
1 nM | 2 nM | 16 nM | 6 nM | 17.1 | 4.8 ×10⁻⁶ cm/s | Cn1cnnc1C1(F)CCN(c2c(C#N)cc(C(F)(F)F)cc2-c2cnc3nc(C4(C)CC4)nn3c2)CC1 [Example 35]
2 nM | 2 nM | 96 nM | 27 nM | 3.6 | 9.1 ×10⁻⁶ cm/s | Cn1cnnc1C1CCN(c2c(C#N)ccc(OC(F)F)c2-c2ccc(F)nc2)CC1 [Example 13]
1 nM | 1 nM | 19 nM | 8 nM | 22.9 | 1.7 ×10⁻⁶ cm/s | Cn1cnnc1C1(F)CCN(c2c(-c3cnc4nn(C(C)(C)C)cc4c3)ccc(C(F)(F)F)c2C#N)CC1 [Example 30]
2 nM | 1 nM | 14 nM | 7 nM | 6.9 | 8.9 ×10⁻⁶ cm/s | Cn1cnnc1C1(F)CCN(c2c(C#N)cc(C(F)(F)F)cc2-c2cnc3nc(C(C)(C)C)nn3c2)CC1 [Example 2]
1 nM | 1 nM | 52 nM | 9 nM | 2.4 | 30 ×10⁻⁶ cm/s | CC(C)Oc1ccc(C#N)c(N2CCC(c3nncn3C)CC2)c1-c1ccc(F)nc1 [Example 10]
1 nM | 1 nM | 17 nM | 5 nM | 21.2 | 2.5 ×10⁻⁶ cm/s | Cn1cnnc1C1CCN(c2c(C#N)cc(Cl)cc2-c2cnc3nn(C(C)(C)C)cc3c2)CC1 [Example 17]
1 nM | 1 nM | 35 nM | 6 nM | 1.9 | 28 ×10⁻⁶ cm/s | COc1ccc(C#N)c(N2CCC(F)(c3nncn3C)CC2)c1-c1ccc(F)nc1 [Example 9]
2 nM | 8 nM | 30 nM | 18 nM | 3.3 | 23 ×10⁻⁶ cm/s | Cn1cnnc1C1CCN(c2c(C#N)cc(Cl)cc2-c2ccc(F)nc2)CC1 [Example 16]
1 nM | 4 nM | 77 nM | 19 nM | 3.5 | 22 ×10⁻⁶ cm/s | Cn1cnnc1C1CCN(c2c(-c3ccc(F)nc3)ccc(C(F)(F)F)c2C#N)CC1 [Example 31]
2 nM | 10 nM | 48 nM | 18 nM | 2.1 | 24 ×10⁻⁶ cm/s | Cn1cnnc1C1CCN(c2c(C#N)cc(F)cc2-c2ccc(F)nc2)CC1 [Example 7]
1 nM | 2 nM | 78 nM | 19 nM | 1.4 | 53 ×10⁻⁶ cm/s | Cn1cnnc1C1(F)CCN(c2c(-c3ccc(F)nc3)ccc(C(F)(F)F)c2C#N)CC1 [Example 29]
1 nM | 2 nM | 44 nM | 43 nM | 3.2 | 28 ×10⁻⁶ cm/s | Cn1cnnc1C1CCN(c2c(C#N)ccc(OCC3CC3)c2-c2ccc(F)nc2)CC1 [Example 11]
1 nM | 1 nM | 9 nM | 9 nM | 4.5 | 18 ×10⁻⁶ cm/s | Cn1cnnc1C1(F)CCN(c2c(C#N)cc(Cl)cc2-c2cnc3nn(C(C)(C)C)cc3c2)CC1 [Example 19]
2 nM | 4 nM | 36 nM | 24 nM | 1 | 66 ×10⁻⁶ cm/s | Cn1cnnc1C1(F)CCN(c2c(C#N)cc(Cl)cc2-c2ccc(F)nc2)CC1 [Example 18]
1 nM | 1 nM | 20 nM | 14 nM | 2.6 | 19 ×10⁻⁶ cm/s | Cn1cnnc1C1CCN(c2c(C#N)ccc(OCc3ccccc3)c2-c2ccc(F)nc2)CC1 [Example 12]
2 nM | 1 nM | 23 nM | 10 nM | 9.7 | 7.5 ×10⁻⁶ cm/s | Cn1cnnc1C1(F)CCN(c2c(C#N)cc(F)cc2-c2cnc3nn(C(C)(C)C)cc3c2)CC1 [Example 25]
2 nM | 2 nM | 93 nM | 12 nM | 1.7 | 34 ×10⁻⁶ cm/s | Cn1cnnc1C1(F)CCN(c2c(-c3ccc(F)nc3)ccc(Cl)c2C#N)CC1 [Example 28]
1 nM | – | 36 nM | 73 nM | – | – | Cn1cnnc1C1(F)CCN(c2c(-c3cnc4nn(C(C)(C)C)cc4c3)ccc(OCCC(C)(C)O)c2C#N)CC1 [Example 34]
1 nM | 1 nM | 5 nM | 11 nM | 3.2 | 25 ×10⁻⁶ cm/s | Cn1cnnc1C1(F)CCN(c2c(C#N)cc(C(F)(F)F)cc2-c2cnc3nn(C(C)(C)C)cc3c2)CC1 [Example 1]
3 nM | 12 nM | 19 nM | 12 nM | 10.4 | 9 ×10⁻⁶ cm/s | Cn1cnnc1C1CCN(c2c(C#N)cc(C(F)(F)F)cc2-c2ccc(F)nc2)CC1 [Example 3]
1 nM | 1 nM | 20 nM | 11 nM | 51.9 | 0.8 ×10⁻⁶ cm/s | COc1ccc(-c2cnc3nn(C(C)(C)C)cc3c2)c(N2CCC(F)(c3nncn3C)CC2)c1C#N [Example 33]
5 nM | 25 nM | 324 nM | 280 nM | 39.1 | 1.1 ×10⁻⁶ cm/s | Cn1cnnc1C1CCN(c2c(C#N)cc(C#N)cc2-c2ccc(F)nc2)CC1 [Example 21]
1 nM | 4 nM | 102 nM | 24 nM | 12.5 | 5.6 ×10⁻⁶ cm/s | COc1ccc(-c2ccc(F)nc2)c(N2CCC(c3nncn3C)CC2)c1C#N [Example 20]
2 nM | 2 nM | 70 nM | 36 nM | 146 | 0.2 ×10⁻⁶ cm/s | Cn1cnnc1C1CCN(c2c(-c3cnc4nn(C(C)(C)C)cc4c3)ccc(C(F)(F)F)c2C#N)CC1 [Example 32]
1 nM | 1 nM | 19 nM | 7 nM | 19.1 | 2.2 ×10⁻⁶ cm/s | Cn1cnnc1C1(F)CCN(c2c(-c3cnc4nn(C(C)(C)C)cc4c3)ccc(Cl)c2C#N)CC1 [Example 27]
3 nM | 4 nM | 47 nM | 16 nM | 1.6 | 44 ×10⁻⁶ cm/s | Cn1cnnc1C1(F)CCN(c2c(C#N)cc(F)cc2-c2ccc(F)nc2)CC1 [Example 6]
111 nM | 1710 nM | – | 3060 nM | – | – | Nc1ncc(C2CCN(c3ncccc3-c3ccc(F)nc3)CC2)s1 [Prior art Compound 1094, reference compound]
13 nM | 260 nM | – | – | – | – | Nc1nnc(C2CCN(c3ncccc3-c3ccc(F)nc3)CC2)s1 [Prior art Compound 1095, reference compound]

Structure (SMILES) | IC50 (QPCTL) | IC50 (QPCT) | IC50 [1] | IC50 [2] | efflux ratio [3] | Papp A→B [3]
Cn1cnnc1C1CCN(c2ncccc2-c2cccnc2)CC1 [SEN180, reference compound] | – | 176 nM | – | – | – | –
